The values that follow come from US8207172B2 (Bayer Intellectual Property GmbH, priority 2004, dated 2012).

Assay [1] relates to A431 cells (human epidermoid carcinoma). Nature of the assay: In vitro tumor cell proliferation assay (Cell Titer-Glo luminescent cell viability), A431. The assay is classed as cell-based. The following applies: A-431, 72 h, 72 hours of drug exposure, ATP luminescence readout, read-out: IC50, anti-proliferative activity (inhibition of cell proliferation). In outline:
(§1)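 A431 or BT474 cells were exposed 72 h at 37°C to serially diluted compounds (final 100 μM down to 64 pM, 0.1% DMSO). Viable cells were read by ATP luminescence (CellTiter-Glo) and IC50 values derived.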
(In general: Cellular ATP, detected with luciferase, serves as a proxy for viable cell number.)

In assay [2] the test system is BT474 (human breast carcinoma). As to the kind of experiment: In vitro tumor cell proliferation assay (Cell Titer-Glo luminescent cell viability), BT474. The assay is classed as cell-based. The following applies: BT-474, 72 h, BT474 cells, 72 hours of drug exposure, ATP luminescence readout, read-out: IC50, anti-proliferative activity (inhibition of cell proliferation). In outline:
as §1

Counter-ions that a name gives are not always drawn.

For `OCCCn1ncc2c1CCc1c-2sc2ncnc(Nc3ccc(OCc4cccc(F)c4)c(Cl)c3)c12` [Example 268, 3-[6-({3-chloro-4-[(3-fluorobenzyl)oxy]phenyl}amino)-4,5-dihydro-3H-pyrimido[5′,4′:4,5]thieno[2,3-e]indazol-3-yl]propan-1-ol], the IC50 in assay [1] was at most 50 µM; in assay [2] it was at most 1 µM.
With `COCCN1CCN(C(=O)Cn2cc3c(n2)CCc2c-3sc3ncnc(Nc4ccc(OCc5cccc(F)c5)c(Cl)c4)c23)CC1` [Example 186, N-{3-chloro-4-[(3-fluorobenzyl)oxy]phenyl}-2-{2-[4-(2-methoxyethyl)piperazin-1-yl]-2-oxoethyl}-4,5-dihydro-2H-pyrimido[5′,4′:4,5]thieno[2,3-e]indazol-6-amine], the results for the IC50 in assay [1] and in assay [2] were at most 5 µM and at most 1 µM, respectively.
Consider `O[C@H](CN1CCNCC1)Cn1cc2c(n1)CCc1c-2sc2ncnc(Nc3ccc(OCc4cccc(F)c4)c(Cl)c3)c12` [Example 152, (2R)-1-[6-({3-chloro-4-[(3-fluorobenzyl)oxy]phenyl}amino)-4,5-dihydro-2H-pyrimido[5′,4′:4,5]thieno[2,3-e]indazol-2-yl]-3-piperazin-1-ylpropan-2-ol trifluoroacetate (salt)], for which the results for the IC50 in assay [1] and in assay [2] were at most 50 µM and at most 1 µM, respectively.
Turning to `Fc1cccc(COc2ccc(Nc3ncnc4sc5c(c34)CCc3nn(CC4CCNCC4)cc3-5)cc2Cl)c1` [Example 232, N-{3-chloro-4-[(3-fluorobenzyl)oxy]phenyl}-2-(piperidin-4-ylmethyl)-4,5-dihydro-2H-pyrimido[5′,4′:4,5]thieno[2,3-e]indazol-6-amine], the IC50 is at most 5 µM in assay [1] and at most 1 µM in assay [2].
Regarding `CN1CCN(CCn2cc3c(n2)CCc2c-3sc3ncnc(Nc4ccc(OCc5ccccn5)c(Cl)c4)c23)CC1` [Example 102, N-[3-chloro-4-(pyridin-2-ylmethoxy)phenyl]-2-[2-(4-methylpiperazin-1-yl)ethyl]-4,5-dihydro-2H-pyrimido[5′,4′:4,5]thieno[2,3-e]indazol-6-amine], the IC50 is at most 5 µM in assay [1] and at most 1 µM in assay [2].
As for `CN(C)[C@H]1CCN(C(=O)Cn2cc3c(n2)CCc2c-3sc3ncnc(Nc4ccc(OCc5cccc(F)c5)c(Cl)c4)c23)C1` [Example 177, N-{3-chloro-4-[(3-fluorobenzyl)oxy]phenyl}-2-{2-[(3S)-3-(dimethylamino)pyrrolidin-1-yl]-2-oxoethyl}-4,5-dihydro-2H-pyrimido[5′,4′:4,5]thieno[2,3-e]indazol-6-amine], the IC50 in assay [1] was at most 5 µM; in assay [2], at most 1 µM.
For `COCCN(C)CCCn1ncc2c1CCc1c-2sc2ncnc(Nc3ccc(OCc4cccc(F)c4)c(Cl)c3)c12` [Example 270, N-{3-chloro-4-[(3-fluorobenzyl)oxy]phenyl}-3-{3-[(2-methoxyethyl)(methyl)amino]propyl}-4,5-dihydro-3H-pyrimido[5′,4′:4,5]thieno[2,3-e]indazol-6-amine] the same measures were at most 50 µM and at most 1 µM.
With `Fc1ccc(Nc2ncnc3sc4c(c23)CCc2c-4cnn2CCn2ccnc2)cc1Cl` [Example 97, N-(3-chloro-4-fluorophenyl)-3-[2-(1H-imidazol-1-yl)ethyl]-4,5-dihydro-3H-pyrimido[5′,4′:4,5]thieno[2,3-e]indazol-6-amine], the IC50 in assay [1] and in assay [2] was at most 5 µM in each case.
Consider `CN1CCN(CCn2cc3c(n2)CCc2c-3sc3ncnc(Nc4ccc(OCc5ccccc5F)c(Cl)c4)c23)CC1` [Example 334, N-{3-chloro-4-[(2-fluorobenzyl)oxy]phenyl}-2-[2-(4-methylpiperazin-1-yl)ethyl]-4,5-dihydro-2H-pyrimido[5′,4′:4,5]thieno[2,3-e]indazol-6-amine], for which the IC50 in assay [1] is at most 5 µM; in assay [2], at most 1 µM.
For `OC[C@@H](O)Cn1cc2c(n1)CCc1c-2sc2ncnc(Nc3ccc(OCc4cccc(F)c4)c(Cl)c3)c12` [Example 75, (S)-3-{6-[3-Chloro-4-(3-fluoro-benzyloxy)-phenylamino]-4,5-dihydro-10-thia-2,3,7,9-tetraaza-cyclopenta[a]fluoren-2-yl}-propane-1,2-diol], the figures for the IC50 in assay [1] and in assay [2] were at most 5 µM and at most 1 µM, respectively.
In the case of `Cc1cccc(COc2ccc(Nc3ncnc4sc5c(c34)CCc3nn(CCO)cc3-5)cc2Cl)n1` [Example 115], the IC50 in assay [1] was at most 50 µM; in assay [2] it was at most 1 µM.
In the case of `O[C@H]1CCN(CCn2cc3c(n2)CCc2c-3sc3ncnc(Nc4ccc(F)c(Cl)c4)c23)C1` [Example 30, (3S)-1-(2-{6-[(3-chloro-4-fluorophenyl)amino]-4,5-dihydro-2H-pyrimido[5′,4′:4,5]thieno[2,3-e]indazol-2-yl}ethyl)pyrrolidin-3-ol], the IC50 in assay [1] and in assay [2] was at most 5 µM in each case.
Take `CC(C)N1CCC(Cn2cc3c(n2)CCc2c-3sc3ncnc(Nc4ccc(OCc5cccc(F)c5)c(Cl)c4)c23)CC1` [Example 245, N-{3-chloro-4-[(3-fluorobenzyl)oxy]phenyl}-2-[(1-isopropylpiperidin-4-yl)methyl]-4,5-dihydro-2H-pyrimido[5′,4′:4,5]thieno[2,3-e]indazol-6-amine]: the figures for the IC50 in assay [1] and in assay [2] were at most 5 µM and at most 1 µM, respectively.
Consider `CN1CCN(CCn2ncc3c2CCc2c-3sc3ncnc(Nc4ccc(OCc5cccc(F)c5)c(Cl)c4)c23)CC1` [Example 82, N-{3-chloro-4-[(3-fluorobenzyl)oxy]phenyl}-3-[2-(4-methylpiperazin-1-yl)ethyl]-4,5-dihydro-3H-pyrimido[5′,4′:4,5]thieno[2,3-e]indazol-6-amine], for which the IC50 in assay [1] was at most 5 µM; in assay [2], at most 1 µM.
With `COC[C@H]1CCCN1CCn1cc2c(n1)CCc1c-2sc2ncnc(Nc3ccc(F)c(Cl)c3)c12` [Example 28, N-(3-chloro-4-fluorophenyl)-2-{2-[(2R)-2-(methoxymethyl)pyrrolidin-1-yl]ethyl}-4,5-dihydro-2H-pyrimido[5′,4′:4,5]thieno[2,3-e]indazol-6-amine], the IC50 in assay [1] and in assay [2] was at most 5 µM throughout.
Regarding `CN1CCN(CCn2ncc3c2CCc2c-3sc3ncnc(Nc4ccc(OCc5cccc(C(F)(F)F)c5)c(Cl)c4)c23)CC1` [Example 319, N-(3-chloro-4-{[3-(trifluoromethyl)benzyl]oxy}phenyl)-3-[2-(4-methylpiperazin-1-yl)ethyl]-4,5-dihydro-3H-pyrimido[5′,4′:4,5]thieno[2,3-e]indazol-6-amine], the IC50 in assay [1] and in assay [2] was at most 5 µM each time.
`Fc1cccc(COc2ccc(Nc3ncnc4sc5c(c34)CCc3nn(CCN4CCCC4)cc3-5)cc2Cl)c1` [Example 65, N-{3-chloro-4-[(3-fluorobenzyl)oxy]phenyl}-2-(2-pyrrolidin-1-ylethyl)-4,5-dihydro-2H-pyrimido[5′,4′:4,5]thieno[2,3-e]indazol-6-amine]: the IC50 in assay [1] is at most 5 µM; in assay [2], at most 1 µM.
Take `CCNC[C@@H](O)Cn1cc2c(n1)CCc1c-2sc2ncnc(Nc3ccc(OCc4cccc(F)c4)c(Cl)c3)c12` [Example 157, (2R)-1-[6-({3-chloro-4-[(3-fluorobenzyl)oxy]phenyl}amino)-4,5-dihydro-2H-pyrimido[5′,4′:4,5]thieno[2,3-e]indazol-2-yl]-3-(ethylamino)propan-2-ol trifluoroacetate (salt)]: the IC50 was at most 50 µM in assay [1] and at most 1 µM in assay [2].
In the case of `CCN1CCN(CCn2cc3c(n2)CCc2c-3sc3ncnc(Nc4ccc(OCc5cccc(C)n5)c(Cl)c4)c23)CC1` [Example 118, N-{3-chloro-4-[(6-methylpyridin-2-yl)methoxy]phenyl}-2-[2-(4-ethylpiperazin-1-yl)ethyl]-4,5-dihydro-2H-pyrimido[5′,4′:4,5]thieno[2,3-e]indazol-6-amine], the IC50 was at most 50 µM in assay [1] and at most 5 µM in assay [2].
Taken in the same sequence, the figures for `CN(C)C1CCN(CCn2ncc3c2CCc2c-3sc3ncnc(Nc4ccc(OCc5cccc(F)c5)c(Cl)c4)c23)C1` (stereo not shown) [Example 267, N-{3-chloro-4-[(3-fluorobenzyl)oxy]phenyl}-3-{2-[3-(dimethylamino)pyrrolidin-1-yl]ethyl}-4,5-dihydro-3H-pyrimido[5′,4′:4,5]thieno[2,3-e]indazol-6-amine trifluoroacetate] were at most 5 µM and at most 1 µM.
For `Fc1cccc(COc2ccc(Nc3ncnc4sc5c(c34)CCc3nn(CCCl)cc3-5)cc2Cl)c1` [Example 79, 2-(2-chloroethyl)-N-{3-chloro-4-[(3-fluorobenzyl)oxy]phenyl}-4,5-dihydro-2H-pyrimido[5′,4′:4,5]thieno[2,3-e]indazol-6-amine] the same measures were at most 50 µM and at most 1 µM.
On to `CN(C)[C@@H]1CCN(CC(=O)N2CCC(Cn3cc4c(n3)CCc3c-4sc4ncnc(Nc5ccc(OCc6cccc(F)c6)c(Cl)c5)c34)CC2)C1` [Example 234, N-{3-chloro-4-[(3-fluorobenzyl)oxy]phenyl}-2-[(1-{[(3R)-3-(dimethylamino)pyrrolidin-1-yl]acetyl}piperidin-4-yl)methyl]-4,5-dihydro-2H-pyrimido[5′,4′:4,5]thieno[2,3-e]indazol-6-amine trifluoroacetate], for which the results for the IC50 in assay [1] and in assay [2] were at most 50 µM and at most 5 µM, respectively.
Taken in the same sequence, the figures for `CCNCCn1cc2c(n1)CCc1c-2sc2ncnc(Nc3ccc(OCc4ccccn4)c(Cl)c3)c12` [Example 108, N-[3-chloro-4-(pyridin-2-ylmethoxy)phenyl]-2-[2-(ethylamino)ethyl]-4,5-dihydro-2H-pyrimido[5′,4′:4,5]thieno[2,3-e]indazol-6-amine] were at most 50 µM and at most 1 µM.
